Results: patent publication US7220784B2, “Substituted stilbenes and their reactions” (priority 2000, dated 2007)
Read-outs that look alike come from different tables or passages of the source.

What was measured:
A2780 = experiment: Cytotoxicity/growth inhibition assay (MTT), A2780; type: cell-based
Description: (§1) The following assays (1–5) were carried out as described in our paper (Woods, et al, British Journal of Cancer, 71, 705–711 (1995)). In addition to the cell lines described in this paper, other established human cell lines (K562, HUVEC, H460, BE, H529, and HT29) were used in the cytotoxicity/growth inhibition assay. • (1) Inhibition of tubulin assembly. The figure quoted is the concentration required to reduce assembly of tubulin by 50%. Tubulin assembly is monitored by light scatter/absorption at 350 nm.
(§2) (2) Competition for the colchicine binding site on tubulin. The figure quoted represents the % of ^3H-colchicine bound following co-incubation of test compound and ^3H-cochicine with isolated tubulin. Where ester pro-drugs were used the experiments were carried out in the presence and absence of porcine liver esterase. • (3) Cytotoxicity/growth inhibition assay. This was carried out by the MTT assay. • (4) Permeability (shape-change) assay in endothelial cells. This was carried out using a method based on that of Watts et al. (Anticancer Res., 17, 71–75, (1997)). This involved the diffusion of a fluorescently labelled dextran through a barrier of endothelial cells (HUVEC) grown to confluence on a porous membrane. The effect of agents to alter the shape of these cells results in an increase in the permeability of the cells to the dye. The figure represents the increase in permeability over control cultures when drug is added (30 minutes, 1 mM.). • (5) Experiments to study the anti-vascular effects of these agents were carried out as described previously by our group. (Zhao et al, European Journal of Nuclear Medicine, 26, 231–238 (1999)). The anti-vascular effects of the agents were monitored by either positron emission tomography (PET) or by histologogical examination following treatment of mice bearing T50:80 murine breast tumours, or H460 human lung tumours. • (6) Anti-tumour efficacy of agents was determined in xenografts of H460 human lung cancer. Animals (n=5) were trated either with 5 daily injections and tumour size measured with time following treatment. • (7) The pharmacokinetic profile of agents was determined in mice following injection with drug. Blood was taken at various times following treatment and analysed by HPLC with UV detection. The HPLC conditions were isocratic using a 5 micron C18 BDS column (150×4.6) ad eluting with 75% MeOH in water with a detection wavelength of 290 nm. […] (AND(P)H:quinone oxidoreductace, EC 1.6.99.2). DT-diaphorase is an enzyme over-expressed in a number of human tumours. […] This two-electron reducing enzyme can be used to selectively activate prodrugs within cancers which over-express the enzyme.

[1] = tested on: P388 murine leukaemia cell line; experiment: Cytotoxicity/growth inhibition assay (MTT), P388; type: cell-based
Description: as §2, with “This was carried out using a method based on that of Watts et al. (Anticancer Res., 17, 71–75, (1997)).” left out, “(Zhao et al, European Journal of Nuclear Medicine, 26, 231–238 (1999)).” left out, “detection.” for “detection. The HPLC conditions were isocratic using a 5 micron C18 BDS column (150×4.6) ad eluting with 75% MeOH in water with a detection wavelength of 290 nm.”

HUVEC = experiment: Growth inhibition studies using HUVEC; type: cell-based, human; details: Homo sapiens, HUVEC
Description: as §1, §2

tubulin [2] = tested on: T1, tubulin; experiment: Inhibition of tubulin assembly; type: biochemical; details: concentration required to reduce assembly of tubulin by 50%
T1 construct: other: concentration required to reduce assembly of tubulin by 50%
Description: as §1

[3] = tested on: colchicine binding site on tubulin; experiment: Competition for the colchicine binding site on tubulin
A2780/ADR = experiment: Cytotoxicity/growth inhibition assay (MTT), A2780/ADR; type: cell-based
Description: as §1, §2

[4] = tested on: colchicine binding site on tubulin; experiment: Competition for the colchicine binding site on tubulin; details: % of 3H-colchicine bound; for Colchicine displacement protein:drug 1:10 (with esterase): with porcine liver esterase
Description: as §2, with “This was carried out using a method based on that of Watts et al. (Anticancer Res., 17, 71–75, (1997)).” left out, “(Zhao et al, European Journal of Nuclear Medicine, 26, 231–238 (1999)).” left out, “detection.” for “detection. The HPLC conditions were isocratic using a 5 micron C18 BDS column (150×4.6) ad eluting with 75% MeOH in water with a detection wavelength of 290 nm.”

[5] = tested on: K562 human myelogeneous leukaemia cell line; experiment: Cytotoxicity/growth inhibition assay (MTT), K562; type: cell-based; details: MTT, read-out: K562 IC50
How it was run: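 Growth inhibition of P388 murine and K562 human leukaemia cells measured by MTT assay.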

tubulin [6] = experiment: MA IC50 (Tables 12-26, abbreviation not defined); type: biochemical
tubulin [7] = experiment: CD IC50 (Tables 12-26, abbreviation not defined); type: binding
K562 = K562 cell cycle analysis; type: cell-based, human; details: K562
[8] = Homo sapiens, A2780, read-out: A2780 IC50
[9] = Homo sapiens, A2780, read-out: IC50 (nM) A2780
[10] = of cells with DNA content = 2 n or >2 n

Compound | IC50 (tubulin [2]) [µM] | Colchicine % Inhibition [3] [%] | IC50 (A2780; [9]) [nM] | IC50 (A2780/ADR; A2780 ADR) [nM] | Colchicine displacement protein:drug 1:10 (with esterase) [4] [%] | Colchicine displacement protein:drug 1:10 (without esterase) [4] [%] | further results
COc1cc(C=Cc2ccc(C)c(O)c2)cc(OC)c1OC [Compound 98-21] | < 1.25 | 1.4 | – | – | – | – | IC50 (A2780; [8]): 0.66 nM; IC50 ([1]; Mus musculus, P388, MTT): 0.000935 µM; IC50 (HUVEC): 0.0095 µM
COc1ccc(C=Cc2cc(OC)c(OC)c(OC)c2)cc1OC(=O)C1CCCN1C(=O)OC(C)(C)C (stereo not drawn) [Compound 41] | 9 | – | 29 | 39 | 2 | 78 | –
COc1ccc(C=Cc2cc(OC)c(OC)c(OC)c2)cc1OC(=O)C(Cc1ccccc1)NC(=O)OC(C)(C)C (stereo not drawn) [Compound 33, Boc-Phenylalanine Combretastatin A-4] | 3.6 | – | 2.8 | 4 | 2 | 92 | –
COc1ccc(/C=C\c2cc(OC)c(OC)c(OC)c2)cc1OC(=O)C(Cc1ccc(O)cc1)NC(=O)OC(C)(C)C (stereo not drawn) [Compound 44] | – | – | – | – | – | – | IC50 (A2780; read-out: IC50 (nM) A2780): 4.5 nM; IC50 (A2780/ADR): 6.4 nM
COc1ccc(C=Cc2cc(OC)c(OC)c(OC)c2)cc1OC(=O)c1ccncc1 [Compound 96-167] | 9 | 3.8 | – | – | – | – | IC50 (A2780; read-out: A2780 IC50): 0.37 nM; IC50 ([1]; MTT): 0.0008 µM; IC50 (HUVEC): 0.04 µM
COc1ccc(C=Cc2cc(OC)c(OC)c(OC)c2)c(F)c1F [Compound 00-105] | > 100 | 3.6 | – | – | – | – | IC50 ([5]; Homo sapiens, K562): 0.02 µM
COc1ccc(/C=C\c2cc(OC)c(OC)c(OC)c2)cc1OC(=O)C(Cc1c[nH]cn1)NC(=O)OC(C)(C)C (stereo not drawn) [Compound 40] | 7 | – | – | – | 4 | 2 | IC50 (A2780; read-out: IC50 (nM) A2780): 2.2 nM; IC50 (A2780/ADR): 4.3 nM
COc1ccc(C=Cc2cc(OC)c(OC)c(OC)c2)cc1OC(=O)C(Cc1c[nH]c2ccccc12)NC(=O)OC(C)(C)C (stereo not drawn) [Compound 36] | 4 | – | 1.7 | 2 | – | – | –
CCC(C)C(NC(=O)OC(C)(C)C)C(=O)Oc1cc(C=Cc2cc(OC)c(OC)c(OC)c2)ccc1OC (stereo not drawn) [Compound 34] | 6.2 | – | > 60 | > 60 | 2 | 65 | –
COc1cc(C=Cc2ccc(N(C)C)cc2)cc(OC)c1OC [Compound 97-65] | 100 | – | – | – | – | – | IC50 (A2780; [8]): 95 nM; IC50 ([1]; Mus musculus, P388, MTT): 0.18 µM; IC50 (HUVEC): 0.35 µM
COc1ccc(C=Cc2cc(OC)c(OC)c(OC)c2)cc1OC(=O)C(C)NC(=O)OC(C)(C)C (stereo not drawn) [Compound 39] | 8 | – | 2.7 | 4.6 | 2 | 77 | –
COc1cc(C=Cc2cc(F)c(OC)c(F)c2)cc(OC)c1OC [Compound 00-82] | 7.2 | 39.5 | – | – | – | – | IC50 (A2780; [8]): 60 nM; IC50 ([5]; Homo sapiens, K562): 0.05 µM
COc1ccc(/C=C\c2cc(OC)c(OC)c(OC)c2)cc1OC(=O)[C@@H](CCSC)NC(=O)OC(C)(C)C [Compound 42] | 3.5 | – | 2.9 | 2.9 | 2 | – | –
COc1ccc(/C=C\c2cc(OC)c(OC)c(OC)c2)cc1OC(=O)CNC(=O)OC(C)(C)C [Compound 35] | 7.5 | – | 4.3 | 5 | 4 | 65 | –
COc1ccc(/C=C\c2cc(OC)c(OC)c(OC)c2)cc1OC(=O)[C@@H](Cc1c[nH]c2ccccc12)NC(=O)OC(C)(C)C [Compound 43] | 3 | – | 3.3 | 3.8 | 2 | – | –
COc1ccc(C=Cc2cc(OC)c(OC)c(OC)c2)cc1F [Compound 97-64L] | > 100 | 43 | – | – | – | – | IC50 (A2780; read-out: A2780 IC50): 113 nM; IC50 ([1]; MTT): 0.171 µM
COc1ccc(C=Cc2cc(OC)c(OC)c(OC)c2)cc1OC(=O)C(CCSC)NC(=O)OC(C)(C)C (stereo not drawn) [Compound 37] | 6 | – | 6.7 | 9.1 | 2 | 88 | –
COc1ccc(/C=C\c2cc(C)c(C)c(C)c2)cc1O [Compound 133] | – | – | – | – | – | – | IC50 [5]: 0.02 µM; IC50 (HUVEC): 0.05 µM; IC50 (tubulin [6]): 0.12 µM; IC50 (tubulin [7]): 10 µM; % of cells with DNA content <2 n (K562): 6%; % of cells in G0–G1 (K562; [10]): 3%; % of cells in G2-M (K562; [10]): 91%; % of cells in S phase (K562; [10]): 6%
COc1ccc(C=Cc2cc(OC)c(OC)c(OC)c2)cc1OCc1ccccc1[N+](=O)[O-] [Compound 98-29] | > 100 | 53 | – | – | – | – | IC50 (A2780; [8]): 380 nM; IC50 ([1]; Mus musculus, P388, MTT): 0.45 µM; IC50 (HUVEC): 0.43 µM
COc1ccc(C=Cc2cc(OC)c(OC)c(OC)c2)cc1OC(=O)C(CC(C)C)NC(=O)OC(C)(C)C (stereo not drawn) [Compound 38] | 7.8 | – | 14 | 27 | – | 72 | –
